In ChEMBL document CHEMBL6127119 (J Med Chem, 2024):
Converted amounts (≈) assume the structure as drawn. The source made the active and inactive calls. The calls are words filed in the database; no cut-off is given here.

Experiments:
Staphylococcus aureus [1] = assay: Antibacterial activity against vancomycin-intermediate Staphylococcus aureus incubated for 16 to 24 hrs by CLSI based broth microdilution method; type: functional; conditions: time 16-24 hrs
Enterococcus faecium [2] = assay: Antibacterial activity against vancomycin-resistant Enterococcus faecium harboring VanA phenotype incubated for 16 to 24 hrs by CLSI based broth microdilution method; type: functional; conditions: time 16-24 hrs
Enterococcus faecium [3] = assay: Antibacterial activity against vancomycin-resistant Enterococcus faecium harboring VanM phenotype incubated for 16 to 24 hrs by CLSI based broth microdilution method; type: functional; conditions: time 16-24 hrs
Escherichia coli [4] = assay: Antibacterial activity against Escherichia coli AB1157 incubated for 16 to 24 hrs by CLSI based broth microdilution method; type: functional; conditions: time 16-24 hrs
Pseudomonas aeruginosa = assay: Antibacterial activity against Pseudomonas aeruginosa PAO1 incubated for 16 to 24 hrs by CLSI based broth microdilution method; type: functional; conditions: time 16-24 hrs
Staphylococcus aureus [5] = assay: Potency index, ratio of Vancomycin MIC to test compound MIC for vancomycin-intermediate Staphylococcus aureus incubated for 16 to 24 hrs by CLSI based broth microdilution method; type: functional; conditions: time 16-24 hrs
Escherichia coli [6] = assay: Potency index, ratio of Vancomycin MIC to test compound MIC for Escherichia coli […] incubated for 16 to 24 hrs by CLSI based broth microdilution method; type: functional; conditions: time 16-24 hrs
Staphylococcus aureus [7] = assay: Potency index, ratio of Norvancomycin MIC to test compound MIC for vancomycin-intermediate Staphylococcus aureus incubated for 16 to 24 hrs by CLSI based broth microdilution method; type: functional; conditions: time 16-24 hrs
Enterococcus faecium [8] = assay: Potency index, ratio of Norvancomycin MIC to test compound MIC for vancomycin-resistant Enterococcus faecium incubated for 16 to 24 hrs by CLSI based broth microdilution method; type: functional; conditions: time 16-24 hrs
Enterococcus faecalis [9] = assay: Antibacterial activity against Enterococcus faecalis clinical isolate incubated for 16 to 24 hrs by CLSI based broth microdilution method; type: functional; conditions: time 16-24 hrs
Enterococcus faecium [10] = assay: Antibacterial activity against vancomycin-resistant Enterococcus faecium harboring VanA phenotype clinical isolate incubated for 16 to 24 hrs by CLSI based broth microdilution method; type: functional; conditions: time 16-24 hrs
[11] = Hemolytic activity in rat RBC upto 100 ug/ml incubated for 1 hr by absorbance based assay; type: toxicity, cell-based; conditions: erythrocyte, dose < 100 µg/ml
Staphylococcus aureus [12] = assay: Bactericidal activity against methicillin-resistant Staphylococcus aureus MRSA252 assessed as reduction in bacterial count at 4 to 8 times MIC measured after 24 hrs by time kill assay; type: functional
Staphylococcus aureus [13] = assay: Bacteriostatic activity against methicillin-resistant Staphylococcus aureus MRSA252 at MIC measured after 24 hrs by time kill assay; type: functional, organism-based
Escherichia coli [14] = assay: Bactericidal activity against Escherichia coli AB1157 assessed as reduction in bacterial count at MIC measured after 24 hrs by time kill assay; type: functional
[15] = Half life in CD-1 mouse at 10 mg/kg, iv measured for 24 hrs by UPLC analysis; type: ADME, organism-based; conditions: in vivo
[16] = AUClast in CD-1 mouse at 10 mg/kg, iv measured for 24 hrs by UPLC analysis; type: ADME, organism-based; conditions: in vivo
[17] = Clearance in CD-1 mouse at 10 mg/kg, iv measured for 24 hrs by UPLC analysis; type: ADME, organism-based; conditions: in vivo
[18] = MRT (infinity) in CD-1 mouse at 10 mg/kg, iv measured for 24 hrs by UPLC analysis; type: ADME, organism-based; conditions: in vivo
Staphylococcus aureus [19] = assay: Antibacterial activity against Staphylococcus aureus Mu50 assessed as fold decrease in MIC at 1:1 ratio of compound and Ac2KAA at […] incubated for 16 to 24 hrs by absorbance based assay relative to control; type: functional; conditions: dose 128 µg/ml; time 16-24 hrs
Staphylococcus aureus [20] = assay: Induction of cytoplasmic membrane permeabilization in methicillin-resistant Staphylococcus aureus MRSA252 measured for 40 mins by PI/NPN staining based analysis; type: functional, organism-based; conditions: dose 1-128 µg/ml
Enterococcus faecalis [21] = assay: Induction of inner membrane permeabilization in Enterococcus faecalis ATCC29212 measured for 20 mins by DiSC3(5) staining based analysis; type: functional, organism-based; conditions: dose 1-128 µg/ml
Peptidoglycan [22] = assay: Potency index, ratio of vancomycin Ka to test compound Ka for Ac-Lys(D-isoAsp)-D-Ala-D-Ala lipid II model peptide moiety
Peptidoglycan [23] = assay: Binding affinity to Ac-Lys(D-isoAsp)-D-Ala-D-Ala lipid II model peptide moiety assessed as change in Gibb's free energy by ITC analysis
Staphylococcus aureus [24] = assay: Induction of drug resistance in vancomycin-intermediate Staphylococcus aureus Mu50 assessed as change in MIC after 20 passages by broth microdilution method; type: functional, organism-based
Staphylococcus aureus [25] = assay: Post-antibiotic effect in Staphylococcus aureus MRSA252 at 10 times measured after 7 hrs; type: functional, organism-based
Staphylococcus aureus [26] = assay: Post-antibiotic effect in Staphylococcus aureus MRSA252 assessed as decrease in bacterial titer at 20 times measured after 7 hrs; type: functional
Staphylococcus aureus [27] = assay: Post-antibiotic effect in Staphylococcus aureus MRSA252 assessed as time of effect at 10 times; type: functional

Molecule `CC(C)C[C@@H](N)C(=O)N[C@H]1C(=O)N[C@@H](CC(N)=O)C(=O)N[C@H]2C(=O)N[C@H]3C(=O)N[C@H](C(=O)N[C@H](C(=O)NCc4ccc(-c5ccc(CNC(=N)N)cc5)cc4)c4cc(O)cc(O)c4-c4cc3ccc4O)[C@H](O)c3ccc(c(Cl)c3)Oc3cc2cc(c3O[C@@H]2O[C@H](CO)[C@@H](O)[C@H](O)[C@H]2O[C@H]2C[C@](C)(N)[C@H](O)[C@H](C)O2)Oc2ccc(cc2Cl)[C@H]1O` has an MIC (Staphylococcus aureus [1]) of 1 µg/mL (≈ 0.598 µM), an MIC (Enterococcus faecium [2]) of 4 µg/mL (≈ 2.39 µM) and an MIC (Enterococcus faecium [3]) of 4 µg/mL (≈ 2.39 µM). The MIC (Escherichia coli [4]) was 8 µg/mL (≈ 4.79 µM), the MIC (Pseudomonas aeruginosa) was > 128 µg/mL and the Ratio (Staphylococcus aureus [5]) was 2. It also gave a Ratio (Escherichia coli [6]) of 2, a Ratio (Staphylococcus aureus [7]) of 2 and a Ratio (Enterococcus faecium [8]) of 2. For the same molecule, the MIC (Enterococcus faecalis [9]) was ≤ 0.03 µg/mL, the MIC (Enterococcus faecium [10]) was 2 µg/mL (≈ 1.2 µM) and the Activity [11] was “Non-Toxic”. For the same molecule, the Activity (Staphylococcus aureus [12]) was ~1 log10CFU/ml, the Activity (Staphylococcus aureus [13]) was “Active” and the Activity (Escherichia coli [14]) was 1 log10CFU/ml. The half-life [15] was 13.4 h, the AUC(0-t) at 24 h [16] was 28400 ng·h/mL and the clearance [17] was 4.2 mL/min/kg. The MRT inf [18] was 20.2 h, the “fold change (FC)” value (Staphylococcus aureus [19]) was 2 and the Activity (Staphylococcus aureus [20]) was “Dose-Dependent Effect”. The Activity (Enterococcus faecalis [21]) was “Dose-Dependent Effect”, the Ratio (Peptidoglycan [22]) was 2.7 and the deltaG (Peptidoglycan [23]) was -7.96 kcal/mol. For the same molecule, the Activity (Staphylococcus aureus [24]) was “inactive”, the Activity (Staphylococcus aureus [25]) was “Active” and the Activity (Staphylococcus aureus [26]) was 1.2 log10CFU/ml. It also gave a Time (Staphylococcus aureus [27]) of 6 h.
